Laboratory results reported in patent US11613531B2, “Inhibitors of RHO associated coiled-coil containing protein kinase” (Kadmon Corporation, LLC, priority 2017, dated 2023).

How the values were obtained:
[1] = target: Recombinant ROCK2 (amino acids 1-552) (Homo sapiens (Human), UniProt O75116); experiment: Z′-Lyte kinase assay, ROCK2; format: biochemical; settings: 9 points 2-fold serial dilution
In short: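 Recombinant human ROCK1 (aa 1-535) or ROCK2 (aa 1-552) activity read by Z′-Lyte kinase assay. Percent inhibition at 1 μM compound was normalized to DMSO control; IC50 from 9-point 2-fold serial dilutions by nonlinear regression.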

[2] = system: phosphorylation of ROCK targets MLC and MYPT1 in A7R5 cells; experiment: Western blot of A7R5 cell lysates (ppMlc, MYPT1); format: cell-based, Rat; settings: 110 nM, 90 min
Protocol: FIG. 1c. Western blot of A7R5 cell lysates to visualize ppMlc (T18/S19) levels following treatment with the compound of Example 192 (“Example 192”) for 90 min. A7R5 cells were treated with the compound and ppMlc (T18/S19) levels were visualized by western blotting.
A7R5 cells were treated with the compound of Example 192 for 90 min and ppMlc (T18/S19) levels were visualized by western blotting.

[3] = system: Bleomycin induced lung fibrosis in mice; experiment: Prophylactic bleomycin induced lung fibrosis model; format: in vivo; settings: 21-day treatment
From the text: FIG. 9a. ROCK inhibitor is active in a mouse model of pulmonary fibrosis. Representative images of lung sections stained with Masson's trichrome to visualized fibrosis in the lungs of mice following 21-day treatment with ROCK inhibitor in the bleomycin-induced lung injury model.
FIG. 9b. […] Ashcroft fibrotic indices, α-smooth muscle actin (αSMA) percentage positive area and total leukocytes count in bronchoalveolar lavage fluid obtained from lungs of mice in the bleomycin lung fibrosis model treated with compound of Example 192.
Prophylactic Efficacy of Compounds in Bleomycin Induced Lung Fibrosis in Mice
Male C57B/L6 mice were ear tagged and weighed prior to the start of the study. Treatment group animals were treated with the compound on day −1 pre-bleomycin and all subsequent days post-bleomycin administration. On day 0, animals in disease groups received 1.5 U/kg dose of bleomycin via oropharyngeal route. […] Animals were closely monitored daily till the end of the study. […] Blood samples were used for plasma preparation; total leukocytes were counted in BAL fluid; and lungs were fixed in 10% neutral buffered formalin for histopathological analysis.
Based on the strong anti-fibrotic cellular activity of ROCK inhibitors of this invention, the ability of such inhibitors to attenuate fibrosis in the in vivo setting was assessed in several mouse models of disease. […]

[4] = system: Histamine-induced vascular permeability in mice; experiment: Histamine-induced vascular permeability model; format: in vivo; settings: single oral dose 1 hr. prior to histamine injection
From the text: FIG. 12a. ROCK inhibition stabilizes the endothelial barrier function in a histamine-induced vascular permeability model in mice. Representative images of Evan's Blue dye extravasation induced by histamine in the skin of ROCK inhibitor and vehicle treated mice, relative to the control compound (salbutamol). ROCK inhibitor induces vascular barrier stabilization following single dose of compound administered 1 hr. prior to histamine injection.
FIG. 12b. Quantitation of the decrease in spot area size and Evan's Blue dye amount in the skin of ROCK inhibitor treated mice following the induction of capillary leakage by histamine injection.
Histamine-Induced Vascular Permeability Model in Mice […]
20 minutes post challenge with histamine, animals were euthanized. The skin was then inverted, the lesion diameters were measured. The area of the lesion was calculated and expressed in square millimeters. Following diameter measurements, Evan's Blue dye was extracted from the skin tissue and the optical density was measured. Data are calculated against a spiked in Evan's Blue standard curve. […]
The extent of compound efficacy was quantitated by calculating both the overall skin spot area and the amount of Evans Blue dye permeating the skin. 20 Minutes post challenge with histamine, animals were euthanized, the lesion diameters were measured. […]

Sequence of Recombinant ROCK2 (amino acids 1-552) (O75116 1-552): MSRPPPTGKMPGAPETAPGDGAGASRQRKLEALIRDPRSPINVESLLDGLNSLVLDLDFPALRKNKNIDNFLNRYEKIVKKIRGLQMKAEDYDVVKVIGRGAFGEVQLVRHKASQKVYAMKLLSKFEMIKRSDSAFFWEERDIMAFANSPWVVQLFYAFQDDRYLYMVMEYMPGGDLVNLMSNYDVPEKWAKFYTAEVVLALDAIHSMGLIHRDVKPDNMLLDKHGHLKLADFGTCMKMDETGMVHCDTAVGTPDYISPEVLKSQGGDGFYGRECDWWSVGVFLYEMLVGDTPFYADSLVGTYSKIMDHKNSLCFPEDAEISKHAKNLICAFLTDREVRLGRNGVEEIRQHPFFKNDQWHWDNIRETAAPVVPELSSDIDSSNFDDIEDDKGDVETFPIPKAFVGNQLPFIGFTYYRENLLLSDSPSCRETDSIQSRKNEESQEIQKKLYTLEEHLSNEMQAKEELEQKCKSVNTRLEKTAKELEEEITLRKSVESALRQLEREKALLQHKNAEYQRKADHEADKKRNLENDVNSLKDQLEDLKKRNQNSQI

Clc1cnc(N2C3CCC2CNC3)nc1Nc1ccc2[nH]ncc2c1 [Example 192, N-(2-(3,8-diazabicyclo[3.2.1]octan-8-yl)-5-chloropyrimidin-4-yl)-1H-indazol-5-amine]
IC50 [1]: 12 nM
phosphorylation of ROCK targets MLC and MYPT1 [2]: efficiently blocked
activity in bleomycin lung fibrosis model (Ashcroft fibrotic indices, αSMA percentage positive area, total leukocytes count in BAL fluid) [3]: positive activity
vascular permeability induced by histamine (Evan's Blue dye extravasation) [4]: blocked
